Assay results: patent US12065436B2, “Cardiac sarcomere inhibitors” (Cytokinetics, Inc., priority 2018, dated 2024)

Target: bovine cardiac myofibrils (full-length cardiac myosin ATPase in the native sarcomere) (Bos taurus (Bovine), UniProt Q9BE39)
Test: Skinned bovine cardiac myofibril ATPase assay (PK/LDH-coupled)
Format: biochemical
Conditions: Ca2+ activating to 75% of maximal rate; for CDMF75 IC15: concentration giving 15% inhibition; for IC50: read-out: CDMF75 IC50
Outline: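 Inhibition of steady-state ATPase read at 340 nm through a PK/LDH-coupled NADH system (0.5 mM NADH, 1.5 mM PEP). Detergent-skinned bovine cardiac myofibrils, 1 mg/mL, were tested at pH 6.8 in PIPES/MgCl2 with 50 μM ATP and calcium adjusted to give pCa50 or pCa75 activation.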

Chain of bovine cardiac myofibrils (full-length cardiac myosin ATPase in the native sarcomere) (Q9BE39 whole entry): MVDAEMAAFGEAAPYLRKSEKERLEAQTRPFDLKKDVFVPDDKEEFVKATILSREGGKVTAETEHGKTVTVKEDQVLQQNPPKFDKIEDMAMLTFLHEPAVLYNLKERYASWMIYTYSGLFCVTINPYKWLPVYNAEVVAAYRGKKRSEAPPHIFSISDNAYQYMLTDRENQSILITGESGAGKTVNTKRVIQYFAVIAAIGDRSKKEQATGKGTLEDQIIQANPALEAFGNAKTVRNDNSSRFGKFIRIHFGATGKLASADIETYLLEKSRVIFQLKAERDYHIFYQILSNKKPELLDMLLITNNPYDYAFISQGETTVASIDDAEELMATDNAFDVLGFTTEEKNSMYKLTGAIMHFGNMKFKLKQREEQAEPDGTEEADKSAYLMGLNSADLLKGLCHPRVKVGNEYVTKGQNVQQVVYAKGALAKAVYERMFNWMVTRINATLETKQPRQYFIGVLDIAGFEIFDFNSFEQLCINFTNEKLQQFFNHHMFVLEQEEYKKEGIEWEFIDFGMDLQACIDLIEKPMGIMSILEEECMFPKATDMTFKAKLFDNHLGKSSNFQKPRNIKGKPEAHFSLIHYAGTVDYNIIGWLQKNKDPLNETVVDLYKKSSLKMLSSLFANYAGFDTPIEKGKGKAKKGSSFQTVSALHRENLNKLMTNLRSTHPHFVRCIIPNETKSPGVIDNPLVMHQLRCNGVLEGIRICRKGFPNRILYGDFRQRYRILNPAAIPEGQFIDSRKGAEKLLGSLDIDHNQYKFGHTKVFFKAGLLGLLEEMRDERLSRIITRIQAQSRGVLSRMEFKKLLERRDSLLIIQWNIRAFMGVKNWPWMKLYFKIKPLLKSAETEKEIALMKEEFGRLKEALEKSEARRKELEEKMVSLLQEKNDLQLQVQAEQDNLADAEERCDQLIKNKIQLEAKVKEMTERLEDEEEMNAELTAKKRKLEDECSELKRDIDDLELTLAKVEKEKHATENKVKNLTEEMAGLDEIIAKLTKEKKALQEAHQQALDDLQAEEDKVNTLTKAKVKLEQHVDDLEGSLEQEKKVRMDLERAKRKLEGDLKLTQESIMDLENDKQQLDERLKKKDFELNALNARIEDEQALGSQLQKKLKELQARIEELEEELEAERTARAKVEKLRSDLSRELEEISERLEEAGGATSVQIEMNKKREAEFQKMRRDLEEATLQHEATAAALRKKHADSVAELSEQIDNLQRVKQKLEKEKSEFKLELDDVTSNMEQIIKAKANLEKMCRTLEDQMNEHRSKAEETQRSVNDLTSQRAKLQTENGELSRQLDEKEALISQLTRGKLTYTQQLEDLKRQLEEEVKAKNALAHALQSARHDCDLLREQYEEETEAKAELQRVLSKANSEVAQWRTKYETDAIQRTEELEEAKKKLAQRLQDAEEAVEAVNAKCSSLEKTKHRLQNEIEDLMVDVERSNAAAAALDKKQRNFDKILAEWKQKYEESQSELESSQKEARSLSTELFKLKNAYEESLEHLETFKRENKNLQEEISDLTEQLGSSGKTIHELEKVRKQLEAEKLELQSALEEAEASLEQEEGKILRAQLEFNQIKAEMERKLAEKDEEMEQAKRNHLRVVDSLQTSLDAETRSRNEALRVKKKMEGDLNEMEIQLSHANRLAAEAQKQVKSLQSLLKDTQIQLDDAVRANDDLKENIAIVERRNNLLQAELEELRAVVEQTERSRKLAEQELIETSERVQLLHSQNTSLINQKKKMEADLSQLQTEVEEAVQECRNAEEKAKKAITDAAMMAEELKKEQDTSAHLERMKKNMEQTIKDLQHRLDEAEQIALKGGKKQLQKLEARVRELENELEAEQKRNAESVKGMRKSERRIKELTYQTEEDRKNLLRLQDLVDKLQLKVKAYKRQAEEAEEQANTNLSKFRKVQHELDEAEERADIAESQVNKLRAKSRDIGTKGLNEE
Chain of bovine cardiac myofibrils (full-length cardiac myosin ATPase in the native sarcomere) (P85100 whole entry partner): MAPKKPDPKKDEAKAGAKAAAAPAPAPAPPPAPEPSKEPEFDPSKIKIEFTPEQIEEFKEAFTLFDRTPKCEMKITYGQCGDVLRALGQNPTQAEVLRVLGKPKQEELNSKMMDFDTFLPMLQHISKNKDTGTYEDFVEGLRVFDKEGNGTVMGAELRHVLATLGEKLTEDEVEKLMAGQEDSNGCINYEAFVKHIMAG
Chain of bovine cardiac myofibrils (full-length cardiac myosin ATPase in the native sarcomere) (Q3SZE5 whole entry partner): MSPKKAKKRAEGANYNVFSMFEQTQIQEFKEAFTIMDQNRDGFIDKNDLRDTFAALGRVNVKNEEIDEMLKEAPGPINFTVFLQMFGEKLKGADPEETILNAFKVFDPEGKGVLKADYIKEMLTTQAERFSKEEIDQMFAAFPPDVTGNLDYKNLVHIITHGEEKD

In the case of `Cc1cc(C(=O)NC2CCc3cc(-c4nc(C(F)F)no4)ccc32)ccn1` (stereo not drawn) [Compound 132, N-(5-(3-(difluoromethyl)-1,2,4-oxadiazol-5-yl)-2,3-dihydro-1H-inden-1-yl)-2-methylisonicotinamide], the “CDMF75 IC15” value is reported as 4.3 µM and the IC50 is reported as 17.7 µM.

In the case of `Cc1cc(C(=O)N[C@@H]2CCc3cc(-c4nc(C(F)F)no4)ccc32)ccn1` [Compound 133, (R)-N-(5-(3-(difluoromethyl)-1,2,4-oxadiazol-5-yl)-2,3-dihydro-1H-inden-1-yl)-2-methylisonicotinamide], the “CDMF75 IC15” value is reported as 1.5 µM and the IC50 is reported as 5.7 µM.

With `Cc1cc(C(=O)NC2CCc3cc(-c4cnc(C)o4)ccc32)ccn1` (stereo not drawn) [Compound 134, 2-methyl-N-(5-(2-methyloxazol-5-yl)-2,3-dihydro-1H-inden-1-yl)isonicotinamide] the “CDMF75 IC15” value was 39.2 µM and the IC50 was > 39.2 µM.

With `Cc1cc(C(=O)N[C@@H]2CCc3cc(-c4cnc(C)o4)ccc32)ccn1` [Compound 135, (R)-2-methyl-N-(5-(2-methyloxazol-5-yl)-2,3-dihydro-1H-inden-1-yl)isonicotinamide] the “CDMF75 IC15” value was 39.2 µM and the IC50 was > 39.2 µM.

With `Cc1nc(-c2ccc3c(c2)CC[C@H]3NC(=O)c2nnn(C)n2)no1` [Compound 136, (R)-2-methyl-N-(5-(5-methyl-1,2,4-oxadiazol-3-yl)-2,3-dihydro-1H-inden-1-yl)-2H-tetrazole-5-carboxamide] the “CDMF75 IC15” value was 0.8 µM and the IC50 was 2.8 µM.

`Cc1cc(C(=O)NC2CCc3cc(-c4cc(C)on4)ccc32)ccn1` (stereo not drawn) [Compound 137, 2-methyl-N-(5-(5-methylisoxazol-3-yl)-2,3-dihydro-1H-inden-1-yl)isonicotinamide] was tested, and the “CDMF75 IC15” value was 1.2 µM and the IC50 was 4.9 µM.

In the case of `Cc1cc(C(=O)N[C@@H]2CCc3cc(-c4cc(C)on4)ccc32)ccn1` [Compound 138, (R)-2-methyl-N-(5-(5-methylisoxazol-3-yl)-2,3-dihydro-1H-inden-1-yl)isonicotinamide], the “CDMF75 IC15” value is reported as 0.8 µM and the IC50 is reported as 2.9 µM.

`Cc1cc(C(=O)N[C@@H]2CCc3cc(-c4ncc(C)o4)ccc32)ccn1` [Compound 139, (R)-2-methyl-N-(5-(5-methyloxazol-2-yl)-2,3-dihydro-1H-inden-1-yl)isonicotinamide] was tested, and the “CDMF75 IC15” value was 3.6 µM and the IC50 was 17.3 µM.

`Cc1cc(C(=O)NC2CCc3cc(-c4ncc(C)o4)ccc32)ccn1` (stereo not drawn) [Compound 140, 2-methyl-N-(5-(5-methyloxazol-2-yl)-2,3-dihydro-1H-inden-1-yl)isonicotinamide] was tested, and the “CDMF75 IC15” value was 7.6 µM and the IC50 was > 39.2 µM.

For `Cn1nnc(C(=O)N[C@@H]2CCc3cc(-c4noc(C5CCC5)n4)ccc32)n1` [Compound 143, (R)—N-(5-(5-cyclobutyl-1,2,4-oxadiazol-3-yl)-2,3-dihydro-1H-inden-1-yl)-2-methyl-2H-tetrazole-5-carboxamide], the “CDMF75 IC15” value was 0.3 µM and the IC50 was 1 µM.

`Cc1cc(C(=O)NC2CCc3cc(-c4coc(C)n4)ccc32)ccn1` (stereo not drawn) [Compound 145, 2-methyl-N-(5-(2-methyloxazol-4-yl)-2,3-dihydro-1H-inden-1-yl)isonicotinamide] was tested, and the “CDMF75 IC15” value was 39.2 µM and the IC50 was > 39.2 µM.

`Cc1cc(C(=O)N[C@@H]2CCc3cc(-c4coc(C)n4)ccc32)ccn1` [Compound 146, (R)-2-methyl-N-(5-(2-methyloxazol-4-yl)-2,3-dihydro-1H-inden-1-yl)isonicotinamide] was tested, and the “CDMF75 IC15” value was 21.2 µM and the IC50 was > 39.2 µM.

`Cc1cc(C(=O)N[C@@H]2CCc3cc(-c4nnn(C)n4)ccc32)ccn1` [Compound 147, (R)-2-methyl-N-(5-(2-methyl-2H-tetrazol-5-yl)-2,3-dihydro-1H-inden-1-yl)isonicotinamide] was tested, and the “CDMF75 IC15” value was 1.3 µM and the IC50 was 6.2 µM.

With `Cc1cc(C(=O)NC2CCc3cc(-c4nnn(C)n4)ccc32)ccn1` (stereo not drawn) [Compound 148, 2-methyl-N-(5-(2-methyl-2H-tetrazol-5-yl)-2,3-dihydro-1H-inden-1-yl)isonicotinamide] the “CDMF75 IC15” value was 2.9 µM and the IC50 was 13.5 µM.

In the case of `Cc1cc(C(=O)N[C@H]2CCc3cc(-c4nnn(C)n4)ccc32)ccn1` [Compound 149, (S)-2-methyl-N-(5-(2-methyl-2H-tetrazol-5-yl)-2,3-dihydro-1H-inden-1-yl)isonicotinamide], the “CDMF75 IC15” value is reported as 39.2 µM and the IC50 is reported as > 39.2 µM.

With `Cc1nn(C)cc1C(=O)N[C@@H]1CCc2cc(-c3noc(C4CCC4)n3)ccc21` [Compound 150, (R)-N-(5-(5-cyclobutyl-1,2,4-oxadiazol-3-yl)-2,3-dihydro-1H-inden-1-yl)-1,3-dimethyl-1H-pyrazole-4-carboxamide] the “CDMF75 IC15” value was 0.3 µM and the IC50 was 1.2 µM.

For `Cc1c(C(=O)N[C@@H]2CCc3cc(-c4noc(C5CCC5)n4)ccc32)cnn1C` [Compound 151, (R)-N-(5-(5-cyclobutyl-1,2,4-oxadiazol-3-yl)-2,3-dihydro-1H-inden-1-yl)-1,5-dimethyl-1H-pyrazole-4-carboxamide], the “CDMF75 IC15” value was 0.5 µM and the IC50 was 2 µM.

In the case of `Cc1nn(C)cc1C(=O)N[C@@H]1CCc2cc(-c3noc(C(C)C)n3)ccc21` [Compound 152, (R)-N-(5-(5-isopropyl-1,2,4-oxadiazol-3-yl)-2,3-dihydro-1H-inden-1-yl)-1,3-dimethyl-1H-pyrazole-4-carboxamide], the “CDMF75 IC15” value is reported as 0.6 µM and the IC50 is reported as 2.2 µM.

With `Cc1c(C(=O)N[C@@H]2CCc3cc(-c4noc(C5CC5)n4)ccc32)cnn1C` [Compound 153, (R)-N-(5-(5-cyclopropyl-1,2,4-oxadiazol-3-yl)-2,3-dihydro-1H-inden-1-yl)-1,5-dimethyl-1H-pyrazole-4-carboxamide] the “CDMF75 IC15” value was 0.5 µM and the IC50 was 1.9 µM.

In the case of `Cc1nn(C)cc1C(=O)N[C@@H]1CCc2cc(-c3noc(C4CC4)n3)ccc21` [Compound 154, (R)-N-(5-(5-cyclopropyl-1,2,4-oxadiazol-3-yl)-2,3-dihydro-1H-inden-1-yl)-1,3-dimethyl-1H-pyrazole-4-carboxamide], the “CDMF75 IC15” value is reported as 0.4 µM and the IC50 is reported as 1.5 µM.

For `Cc1cc(C(=O)NC2COc3cc(-c4noc(C)n4)ccc32)n(C)n1` (stereo not drawn) [Compound 155, 1,3-dimethyl-N-(6-(5-methyl-1,2,4-oxadiazol-3-yl)-2,3-dihydrobenzofuran-3-yl)-1H-pyrazole-5-carboxamide], the “CDMF75 IC15” value was 1.0 µM and the IC50 was 4.1 µM.

In the case of `Cc1cc(C(=O)N[C@@H]2COc3cc(-c4noc(C)n4)ccc32)n(C)n1` [Compound 156, (S)-1,3-dimethyl-N-(6-(5-methyl-1,2,4-oxadiazol-3-yl)-2,3-dihydrobenzofuran-3-yl)-1H-pyrazole-5-carboxamide], the “CDMF75 IC15” value is reported as 1.1 µM and the IC50 is reported as 4.7 µM.

For `Cc1nc(-c2ccc3c(c2)OCC3NC(=O)c2cn(C)nc2C)no1` (stereo not drawn) [Compound 157, 1,3-dimethyl-N-(6-(5-methyl-1,2,4-oxadiazol-3-yl)-2,3-dihydrobenzofuran-3-yl)-1H-pyrazole-4-carboxamide], the “CDMF75 IC15” value was 1.4 µM and the IC50 was 5.9 µM.

In the case of `Cc1nc(-c2ccc3c(c2)OCC3NC(=O)c2oc(C)nc2C)no1` (stereo not drawn) [Compound 159, 2,4-dimethyl-N-(6-(5-methyl-1,2,4-oxadiazol-3-yl)-2,3-dihydrobenzofuran-3-yl)oxazole-5-carboxamide], the “CDMF75 IC15” value is reported as 1.9 µM and the IC50 is reported as 8.4 µM.

For `Cc1nc(-c2ccc3c(c2)OC[C@@H]3NC(=O)c2oc(C)nc2C)no1` [Compound 160, (R)-2,4-dimethyl-N-(6-(5-methyl-1,2,4-oxadiazol-3-yl)-2,3-dihydrobenzofuran-3-yl)oxazole-5-carboxamide], the “CDMF75 IC15” value was 6.5 µM and the IC50 was 31.3 µM.

With `Cc1nc(-c2ccc3c(c2)OC[C@H]3NC(=O)c2oc(C)nc2C)no1` [Compound 161, (S)-2,4-dimethyl-N-(6-(5-methyl-1,2,4-oxadiazol-3-yl)-2,3-dihydrobenzofuran-3-yl)oxazole-5-carboxamide] the “CDMF75 IC15” value was 1.1 µM and the IC50 was 4.4 µM.

`Cc1nc(-c2ccc3c(c2)OCC3NC(=O)c2cnn(C)c2C)no1` (stereo not drawn) [Compound 162, 1,5-dimethyl-N-(6-(5-methyl-1,2,4-oxadiazol-3-yl)-2,3-dihydrobenzofuran-3-yl)-1H-pyrazole-4-carboxamide] was tested, and the “CDMF75 IC15” value was 1.6 µM and the IC50 was 6.4 µM.

For `Cc1nc(-c2ccc3c(c2)OC[C@H]3NC(=O)c2cnn(C)c2C)no1` [Compound 163, (S)-1,5-dimethyl-N-(6-(5-methyl-1,2,4-oxadiazol-3-yl)-2,3-dihydrobenzofuran-3-yl)-1H-pyrazole-4-carboxamide], the “CDMF75 IC15” value was 0.8 µM and the IC50 was 3.1 µM.

With `Cc1nc(-c2ccc3c(c2)CC[C@H]3NC(=O)c2nncn2C)no1` [Compound 164, (R)-4-methyl-N-(5-(5-methyl-1,2,4-oxadiazol-3-yl)-2,3-dihydro-1H-inden-1-yl)-4H-1,2,4-triazole-3-carboxamide] the “CDMF75 IC15” value was 8.2 µM and the IC50 was > 39.2 µM.

For `Cn1cnnc1C(=O)N[C@@H]1CCc2cc(-c3noc(C(F)F)n3)ccc21` [Compound 165, (R)-N-(5-(5-(difluoromethyl)-1,2,4-oxadiazol-3-yl)-2,3-dihydro-1H-inden-1-yl)-4-methyl-4H-1,2,4-triazole-3-carboxamide], the “CDMF75 IC15” value was 4.6 µM and the IC50 was 23.5 µM.

`Cc1nc(-c2ccc3c(c2)OCC3NC(=O)c2cnc(C)o2)no1` (stereo not drawn) [Compound 166, 2-methyl-N-(6-(5-methyl-1,2,4-oxadiazol-3-yl)-2,3-dihydrobenzofuran-3-yl)oxazole-5-carboxamide] was tested, and the “CDMF75 IC15” value was 2.0 µM and the IC50 was 7 µM.

For `Cc1nc(-c2ccc3c(c2)OC[C@H]3NC(=O)c2cnc(C)o2)no1` [Compound 167, (S)-2-methyl-N-(6-(5-methyl-1,2,4-oxadiazol-3-yl)-2,3-dihydrobenzofuran-3-yl)oxazole-5-carboxamide], the “CDMF75 IC15” value was 1.0 µM and the IC50 was 3.8 µM.

In the case of `Cc1cc(C(=O)NC2CCc3cc(-c4cc(C(F)F)on4)ccc32)ccn1` (stereo not drawn) [Compound 168, N-(5-(5-(difluoromethyl)isoxazol-3-yl)-2,3-dihydro-1H-inden-1-yl)-2-methylisonicotinamide], the “CDMF75 IC15” value is reported as 1.1 µM and the IC50 is reported as 3.8 µM.
